Assay results from PMC3938834, “De Novo Peptide Design and Experimental Validation of Histone Methyltransferase Inhibitors” (PLoS ONE, 2014).
Like-named read-outs stand apart in the source and are kept apart here. No end group written: not given here.

What was measured:
EZH2 = conditions: small molecule inhibitor quoted for reference; cited from earlier work
Description: (§1) To quantitatively measure the inhibition properties of the designed sequences, peptide dose titrations were performed. The concentration of peptide required to suppress 50% of the enzymatic activity (i.e. half-maximal inhibitory concentration, ) and the Hill coefficient (measure of cooperativity of binding) were calculated (Table 2).

[1] = biological target: T1, EZH2 (reconstituted recombinant PRC2 containing full length EZH2, SUZ12, EED, RBAP46/48) (Homo sapiens, UniProt Q15910); assay: radiometric EZH2 HMT enzymatic assay, 384-well Flashplate, 10-point dose titrations; assay type: biochemical
T1 construct: reconstituted recombinant PRC2 (containing full length EZH2, SUZ12, EED, RBAP46/48)
Description: Experiments were performed using radiometric EZH2 enzymatic assays prepared individually or in a semi-automated fashion on a 384-well platform. For the experiments shown in Figures 3.A, 3.C, and 3.D, 4 [drawing 50] g of oligonucleosomes was used per reaction. For the experiments shown in Figures 3.C–D, 3 [drawing 51] g of PRC2 complex were added. For all other HMT assays (Figure 4, Figure 5, and Table 2) the following balanced conditions (at Km for cofactor and substrate) were used. […] The putative peptide inhibitors were tested in single point assays and in 10-point dose titrations. The total volume of the reaction mixture was 30 [drawing 55] L. Reactions were incubated for 1 hour at [drawing 56] C. Reactions terminated by the addition of 10 [drawing 57] L, 5× Laemmli Sample Buffer were loaded onto 15% Tri-Glycine-Polyacrylamide gels and resolved by PAGE. Resolved proteins were transferred to PVDF membrane at 65 V for 2 hours. Membranes were stained with CBB, destained, dried, and exposed to imaging plates for 24 hours. Images were detected using an FLA-7000 bioimaging system (Fujifilm). Reactions terminated by the addition of SAH to a final concentration of 850 [drawing 58] M were transferred to a 384-well Flashplate (Perkin Elmer) and incubated for 90 min. Liquids were aspirated and wells washed with 1×60 [drawing 59] L of wash buffer (50 mM Tris, pH 8.5, 200 mM NaCl, 0.01% NP-40). Detection of incorporated radioactivity in Flashplates was carried out using a Topcount instrument (Perkin Elmer). Potential inhibitory peptides were tested in single point assays and in 10-point dose titrations. Mechanism of Action Enzymatic Assays were performed under the same conditions and using the same protocol. However, in the Mechanism of Action Enzymatic assays the assays were performed with varied enzyme, substrate, or cofactor concentration to identify the mechanism of inhibition.
In order to assess the inhibitory capability of the candidate peptides experimentally, HMT enzymatic assays were conducted. These HMT assays assessed the EZH2-dependent transfer of tritiated methyl-groups from the methyl-donor SAM to reconstituted oligonucleosomes (see Methods for details).
as §1, with “concentration, [drawing 76]” for “concentration,”
Understanding the mechanism of action allows us to determine whether the competitive inhibition targeted by the design framework and the input biological constraints has been successful.

T1 sequence (Q15910 whole entry): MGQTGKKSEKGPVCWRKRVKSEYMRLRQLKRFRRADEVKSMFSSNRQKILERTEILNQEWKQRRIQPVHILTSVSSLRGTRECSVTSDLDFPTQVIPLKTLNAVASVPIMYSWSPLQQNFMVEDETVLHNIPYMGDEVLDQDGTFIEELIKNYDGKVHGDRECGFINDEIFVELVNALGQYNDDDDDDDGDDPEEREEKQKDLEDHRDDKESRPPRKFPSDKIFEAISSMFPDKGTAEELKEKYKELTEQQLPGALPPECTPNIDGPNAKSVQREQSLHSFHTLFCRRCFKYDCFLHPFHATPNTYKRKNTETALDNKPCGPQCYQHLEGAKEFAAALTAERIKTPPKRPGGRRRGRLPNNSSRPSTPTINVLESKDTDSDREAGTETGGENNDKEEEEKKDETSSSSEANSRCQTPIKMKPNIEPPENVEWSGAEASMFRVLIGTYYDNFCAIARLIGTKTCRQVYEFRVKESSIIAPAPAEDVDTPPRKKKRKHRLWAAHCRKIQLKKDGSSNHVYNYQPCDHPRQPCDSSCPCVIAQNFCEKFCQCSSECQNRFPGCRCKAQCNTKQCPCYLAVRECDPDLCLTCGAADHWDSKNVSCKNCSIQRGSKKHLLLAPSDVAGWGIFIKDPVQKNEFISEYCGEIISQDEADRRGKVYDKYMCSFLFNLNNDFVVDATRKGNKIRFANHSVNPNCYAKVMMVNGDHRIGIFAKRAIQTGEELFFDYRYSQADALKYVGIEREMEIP
T1 sequence (Q15022 whole entry partner): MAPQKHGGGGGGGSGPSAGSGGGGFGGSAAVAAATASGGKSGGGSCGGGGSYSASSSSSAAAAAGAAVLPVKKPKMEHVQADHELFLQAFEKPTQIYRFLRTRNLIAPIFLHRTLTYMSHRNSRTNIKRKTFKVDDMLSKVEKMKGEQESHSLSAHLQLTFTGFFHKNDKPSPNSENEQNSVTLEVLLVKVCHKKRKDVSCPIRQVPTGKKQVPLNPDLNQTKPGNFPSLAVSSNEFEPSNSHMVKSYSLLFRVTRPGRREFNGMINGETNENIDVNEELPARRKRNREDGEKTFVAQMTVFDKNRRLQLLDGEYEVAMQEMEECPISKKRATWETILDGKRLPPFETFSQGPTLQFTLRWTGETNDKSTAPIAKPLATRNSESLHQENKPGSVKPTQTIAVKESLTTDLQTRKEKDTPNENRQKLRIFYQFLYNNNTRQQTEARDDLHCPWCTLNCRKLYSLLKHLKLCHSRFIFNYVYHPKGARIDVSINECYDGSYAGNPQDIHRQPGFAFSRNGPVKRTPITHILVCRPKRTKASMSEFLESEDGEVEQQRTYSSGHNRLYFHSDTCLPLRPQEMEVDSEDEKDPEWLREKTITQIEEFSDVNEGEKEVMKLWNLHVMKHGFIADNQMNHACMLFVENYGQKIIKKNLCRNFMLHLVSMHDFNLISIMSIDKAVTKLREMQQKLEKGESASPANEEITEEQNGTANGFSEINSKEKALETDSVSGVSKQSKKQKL
T1 sequence (O75530 whole entry partner): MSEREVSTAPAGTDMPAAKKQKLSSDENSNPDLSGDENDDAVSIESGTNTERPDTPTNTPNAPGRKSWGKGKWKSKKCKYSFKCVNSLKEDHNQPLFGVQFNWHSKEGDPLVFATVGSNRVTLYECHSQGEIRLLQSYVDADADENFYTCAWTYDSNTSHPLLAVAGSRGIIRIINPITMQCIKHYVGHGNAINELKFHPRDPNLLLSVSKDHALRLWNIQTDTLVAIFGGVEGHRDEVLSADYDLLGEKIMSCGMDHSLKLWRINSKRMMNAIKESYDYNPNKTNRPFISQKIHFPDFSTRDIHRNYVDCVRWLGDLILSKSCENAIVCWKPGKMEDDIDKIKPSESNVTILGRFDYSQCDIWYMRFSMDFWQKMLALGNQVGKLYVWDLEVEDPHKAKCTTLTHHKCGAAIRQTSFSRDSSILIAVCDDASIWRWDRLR
T1 sequence (Q09028 whole entry partner): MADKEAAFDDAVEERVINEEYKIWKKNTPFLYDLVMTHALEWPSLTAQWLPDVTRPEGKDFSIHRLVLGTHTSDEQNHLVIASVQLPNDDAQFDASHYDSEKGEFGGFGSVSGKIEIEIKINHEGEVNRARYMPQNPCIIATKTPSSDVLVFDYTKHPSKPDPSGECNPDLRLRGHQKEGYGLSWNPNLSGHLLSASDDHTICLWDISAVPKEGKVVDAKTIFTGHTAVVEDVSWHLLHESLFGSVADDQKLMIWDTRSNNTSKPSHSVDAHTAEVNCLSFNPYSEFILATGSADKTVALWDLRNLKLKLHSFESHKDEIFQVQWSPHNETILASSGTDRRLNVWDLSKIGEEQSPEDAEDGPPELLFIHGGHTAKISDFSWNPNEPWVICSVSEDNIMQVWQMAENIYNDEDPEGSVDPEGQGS

| IC50 ([1]; read-out: IC50) [µM] | Compound | also measured |
| --- | --- | --- |
|  | CCC(CC)n1ccc2c(C(=O)NCc3c(C)cc(C)[nH]c3=O)cc(C#N)cc21 [EI1] | IC50 (EZH2): ~0.015 µM |
| 41 ± 1.19 | GKAPRKQLANRKWWKNYPRDG [SQ040] |  |
| 19.6 ± 1.12 | GKAPRKQLAPKAATKNARATS [SQ026] |  |
| 39.7 ± 1.17 | GKAPRKQLARKNWWKNYPRDG [SQ043] |  |
| 13.6 ± 1.24 | GKAPRKQLARRKWWFNYPQNG [SQ037] | IC50 ([1]; Figure 5, high throughput radiometric assay, SQ037 versus native and mutated peptides, value printed in the picture without unit, read-out: IC50): 8.05 µM |
| 54.9 ± 1.26 | GKAPRKQLASAKKAAATPRTG [SQ010] |  |
|  | GKAPRKQLASKAARAATPKTG [SQ020] | IC50 [1]: 34.2 ± 1.46 µM |
